The text below walks through data of ChEMBL document CHEMBL1811900, “Sesquiterpene glycosides from Cosmospora joca” (J Nat Prod, 2011).

Data set [1] relates to RAW264.7. Kind of data set: Antiinflammatory activity in mouse RAW264.7 cells assessed as inhibition of LPS-stimulated NO production at 100 uM after 24 hrs by spectrophotometry. Type of data set: functional.
The test system of data set [2] is RAW264.7. Kind of data set: Cytotoxicity against mouse RAW264.7 cells by Alamar blue assay. Type of data set: cell-based. For orientation: Alamar Blue is a resazurin reagent that responds to reducing activity.
For data set [3], the system named is RAW264.7. Kind of data set: Antiinflammatory activity in mouse RAW264.7 cells assessed as inhibition of LPS-stimulated NO production at 0.1 to 100 uM after 24 hrs by spectrophotometry. The data set is classed as functional, cell-based.

Calls of active or inactive are those of the source. The calls are words filed in the database; no cut-off is given here.

For `CC(=O)OC(CC(=O)C(C)CCC=C(C)C)/C(C)=C/CO[C@@H]([C@H](O)[C@H](O)CO)[C@H](O)CO` (stereo partly drawn), the inhibition entry in data set [1] was “Active”. In the case of `CC(=O)O[C@@H](C[C@H](O[C@@H]1O[C@H](CO)[C@@H](O)[C@H](O)[C@@H]1O)[C@](C)(O)CCC=C(C)C)/C(C)=C/CO[C@@H]([C@H](O)[C@H](O)CO)[C@H](O)COCC=C(C)C`, the inhibition entry in data set [1] was “inactive”. On to `CCCCC/C=C\CCC(=O)O[C@@H]1[C@H](O[C@@H](C[C@H](OC(C)=O)/C(C)=C/CO[C@@H]([C@H](O)[C@H](O)CO)[C@H](O)CO)[C@](C)(O)CCC=C(C)C)O[C@H](CO)[C@@H](O)[C@@H]1O`, for which, in data set [1], the inhibition result was “Active”. Turning to `CC(C)=CCC/C(C)=C/CC/C(C)=C/CO[C@@H]([C@H](O)[C@H](O)CO)[C@H](O)CO` [COSMOSPORASIDE A], the Imax in data set [1] was 54.52%. Besides, the Activity entry in data set [2] is given as “Toxic”. For the compound `CCCCCCCCCC(=O)O[C@@H]1[C@H](O[C@@H](C[C@H](OC(C)=O)/C(C)=C/CO[C@@H]([C@H](O)[C@H](O)CO)[C@H](O)CO)[C@](C)(O)CCC=C(C)C)O[C@H](CO)[C@@H](O)[C@@H]1O` [COSMOSPORASIDE D], in data set [1], the Imax came out at 71.7%. Moreover, the inhibition entry in data set [3] was “Dose-dependent effect”. Further, the IC50 – broadly, the point on the concentration scale where inhibition reaches its midpoint – in data set [3] (RAW264.7, 24 h) amounted to 66 µM.
